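Grown in 96-well plates, cells were treated for 48 hours with each compound at five concentrations. Insufficient inhibition: endpoint recorded as highest concentration tested. The concentration for full growth arrest is given as TGI.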
Assays:
Assay in all cases: growth of human tumour cells (NCI), 48 h
A498 renal = test system: A498 renal
A549 NSCLC = test system: A549 NSCLC
ACHN renal = test system: ACHN renal
CAKI-1 renal = test system: CAKI-1 renal
CCRF-CEM leukemia = test system: CCRF-CEM leukemia
COLO 205 colon = test system: COLO 205 colon
DLD-1 colon = test system: DLD-1 colon
DMS 114 small cell lung = test system: DMS 114 small cell lung
DMS 273 small cell lung = test system: DMS 273 small cell lung
EKVX NSCLC = test system: EKVX NSCLC
HCC-2998 colon = test system: HCC-2998 colon
HCT-116 colon = test system: HCT-116 colon
HCT-15 colon = test system: HCT-15 colon
HL-60(TB) leukemia = test system: HL-60(TB) leukemia
HOP-62 NSCLC = test system: HOP-62 NSCLC
HOP-92 NSCLC = test system: HOP-92 NSCLC
HT29 colon = test system: HT29 colon
IGROV1 ovarian = test system: IGROV1 ovarian
K-562 leukemia = test system: K-562 leukemia
KM12 colon = test system: KM12 colon
KM20L2 colon = test system: KM20L2 colon
LOX IMVI melanoma = test system: LOX IMVI melanoma
LXFL 529 NSCLC = test system: LXFL 529 NSCLC
M14 melanoma = test system: M14 melanoma
M19-MEL melanoma = test system: M19-MEL melanoma
MOLT-4 leukemia = test system: MOLT-4 leukemia
NCI-H226 lung = test system: NCI-H226 lung
NCI-H23 lung = test system: NCI-H23 lung
NCI-H460 lung = test system: NCI-H460 lung
NCI-H522 lung = test system: NCI-H522 lung
OVCAR-4 ovarian = test system: OVCAR-4 ovarian
OVCAR-5 ovarian = test system: OVCAR-5 ovarian
OVCAR-8 ovarian = test system: OVCAR-8 ovarian
RPMI-8226 leukemia = test system: RPMI-8226 leukemia
RXF-631 renal = test system: RXF-631 renal
SF-268 CNS = test system: SF-268 CNS
SF-295 CNS = test system: SF-295 CNS
SF-539 CNS = test system: SF-539 CNS
SK-MEL-2 melanoma = test system: SK-MEL-2 melanoma
SK-MEL-28 melanoma = test system: SK-MEL-28 melanoma
SK-MEL-5 melanoma = test system: SK-MEL-5 melanoma
SK-OV-3 ovarian = test system: SK-OV-3 ovarian
SN12C renal = test system: SN12C renal
SNB-19 CNS = test system: SNB-19 CNS
SNB-75 CNS = test system: SNB-75 CNS
SR leukemia = test system: SR leukemia
SW-620 colon = test system: SW-620 colon
TK-10 renal = test system: TK-10 renal
U251 CNS = test system: U251 CNS
UACC-257 melanoma = test system: UACC-257 melanoma
UACC-62 melanoma = test system: UACC-62 melanoma
UO-31 renal = test system: UO-31 renal
XF 498 CNS = test system: XF 498 CNS

Measured: TGI

COC(=O)C(NC(=O)c1ccccc1)C(c1c(O)cc(O)cc1O)P(=O)(OC)OC (stereo not drawn)
> 100 µM: A498 renal | A549 NSCLC | ACHN renal | CAKI-1 renal | CCRF-CEM leukemia | COLO 205 colon | DLD-1 colon | DMS 114 small cell lung | DMS 273 small cell lung | EKVX NSCLC | HCC-2998 colon | HCT-116 colon | HCT-15 colon | HL-60(TB) leukemia | HOP-62 NSCLC | HOP-92 NSCLC | HT29 colon | IGROV1 ovarian | K-562 leukemia | KM12 colon | KM20L2 colon | LOX IMVI melanoma | LXFL 529 NSCLC | M14 melanoma | M19-MEL melanoma | MOLT-4 leukemia | NCI-H226 lung | NCI-H23 lung | NCI-H460 lung | NCI-H522 lung | OVCAR-4 ovarian | OVCAR-5 ovarian | OVCAR-8 ovarian | RPMI-8226 leukemia | RXF-631 renal | SF-268 CNS | SF-295 CNS | SF-539 CNS | SK-MEL-2 melanoma | SK-MEL-28 melanoma | SK-MEL-5 melanoma | SK-OV-3 ovarian | SN12C renal | SNB-19 CNS | SNB-75 CNS | SR leukemia | SW-620 colon | TK-10 renal | U251 CNS | UACC-257 melanoma | UACC-62 melanoma | UO-31 renal | XF 498 CNS
